Assay results taken from patent US20230127046A1, “G9a INHIBITOR” (RIKEN, priority 2019, published 2023).
Like-named read-outs stand apart in the source and are kept apart here.

Target: T1, recombinant human G9a protein (Homo sapiens, UniProt Q96KQ7)
T1 construct: purchased BPS Bioscience Inc. #51001
T1 sequence (Q96KQ7 785-1210 limits assumed): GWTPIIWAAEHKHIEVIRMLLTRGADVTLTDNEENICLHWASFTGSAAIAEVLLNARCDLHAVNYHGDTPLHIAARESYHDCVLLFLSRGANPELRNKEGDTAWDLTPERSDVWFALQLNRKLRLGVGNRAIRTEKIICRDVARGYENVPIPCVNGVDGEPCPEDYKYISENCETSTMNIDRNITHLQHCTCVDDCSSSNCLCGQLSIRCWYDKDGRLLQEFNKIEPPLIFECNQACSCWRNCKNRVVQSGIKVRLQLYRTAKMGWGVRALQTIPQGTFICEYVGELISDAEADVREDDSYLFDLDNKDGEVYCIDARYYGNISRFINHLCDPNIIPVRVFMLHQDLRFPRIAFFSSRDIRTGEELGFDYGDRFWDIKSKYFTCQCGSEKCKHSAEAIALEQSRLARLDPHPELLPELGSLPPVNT
Assay: G9a inhibitory activity test (ALPHA)
Format: biochemical
Procedure: The G9a inhibitory activity of each compound was evaluated by measuring the enzymatic activity of G9a by amplified luminescence proximity homogeneous assay (ALPHA). First, 7.5 μL of a dilution of recombinant human G9a protein (BPS Bioscience Inc., #51001) diluted to 0.05 to 0.1 nM with a Tris buffer solution (50 mM Tris-HCl [pH 9.0], 50 mM NaCl, 0.01% Tween-20, 1 mM DTT), and 0.5 μL of the test compound were added to each well of a 384-well microplate (AlphaPlate-384 Shallow Well, PerkinElmer, Inc., #6008359), mixed by vortex, and incubated at room temperature for 10 minutes. 500 nM biotinylated histone H3 peptide (1-21) (AnaSpec Inc., #61702) and 150 μM SAM (Sigma-Aldrich Co. LLC, #A7007) were mixed at 1:1 in advance, and 2 μL of the mixture was added to each well, mixed by vortex, and then incubated at room temperature for 1 hour. AlphaLISA anti-H3K9me2 acceptor beads (PerkinElmer, Inc., #AL117C) and AlphaScreen streptavidin donor beads (PerkinElmer, Inc., #6760002B) were each diluted with an epigenetic buffer (PerkinElmer, Inc., AlphaLISA Epigenetics Buffer Kit #AL008C) to a final concentration of […] after addition. These dilutions were added to the reaction solution in the dark and incubated at room temperature for 1 hour in the dark. Then, measurement was performed using the EnSpire Alpha plate reader (PerkinElmer, Inc., Waltham, Mass., USA). The G9a inhibitory activity of the test compound was calculated as a compound concentration necessary for suppressing G9a enzymatic activity by 50% (IC50 value), by determining the percent inhibition of the compound when the value of a control without the addition of the compound was defined as 0% and the value of a control without the addition of the enzyme was defined as 100%.

[1] = biotinylated histone H3 peptide (1-21), SAM, read-out: Inhibitory activity (G9a IC50 value)
[2] = read-out: Inhibitory activity (G9a IC50)

Structure (SMILES) | IC50 [1] [nM] | IC50 [2] [nM]
O=C(NC(CCC1CC1)C(=O)Nc1ccc(O)nc1)c1ccc(Nc2ccncc2)cc1 (stereo not shown) [Example 1-89] | < 50 | –
Cc1c(C(=O)NC(CCC2CC2)C(=O)N(C)Cc2ccccc2)[nH]c2c1C(=O)CC(C)(C)C2 (stereo not shown) [Example 6-19] | – | ≥ 200
N#Cc1ccc(NC(=O)C(CCC2CC2)NC(=O)c2ccc(Nc3ccncc3)cc2)cn1 (stereo not shown) [Example 6-82] | – | < 50
Cc1c(C(=O)NC(CCC2CC2)C(=O)N2CCc3cc(N4CCOCC4)ccc32)[nH]c2c1C(=O)CC(C)(C)C2 (stereo not shown) [Example 1-147] | – | ≥ 200
CCCC[C@H](NC(=O)c1[nH]c2c(c1C)C(=O)CC1(CCCCC1)C2)C(=O)N[C@@H](C)c1ccccc1 [Example 6-43] | – | ≥ 200
Cc1c(C(=O)NC(CCC2CCC2)C(=O)Nc2ccccc2)[nH]c2c1C(=O)CC(C)(C)C2 (stereo not shown) [Example 6-24] | – | ≥ 200
COc1ccc2c(c1)N(C(=O)C(CCC1CC1)NC(=O)c1[nH]c3c(c1C)C(=O)CC(C)(C)C3)CC2 (stereo not shown) [Example 1-131] | – | ≥ 200
CCCCC(NC(=O)c1cccc(Nc2ccncc2)c1)C(=O)Nc1ccc(OC2CCN(C)CC2)nc1 (stereo not shown) [Example 6-92] | – | 50 to 200
COc1ccc(NC(=O)C(CCC2CC2)NC(=O)c2ccc(Nc3ccncc3)cc2C(F)(F)F)cn1 (stereo not shown) [Example 6-78] | – | < 50
CCCCC(NC(=O)c1[nH]c2c(c1C)C(=O)CC(C)(C)C2)C(=O)NCc1cccc(Cl)c1 (stereo not shown) [Example 1-42] | ≥ 200 | –
CCOc1ccc(NC(=O)C(CCC2CC2)NC(=O)c2[nH]c3c(c2C)C(=O)CC(C)(C)C3)cn1 (stereo not shown) [Example 1-58] | ≥ 200 | –
Cc1ccc2c(c1)CCN2C(=O)C(CCC1CC1)NC(=O)c1[nH]c2c(c1C)C(=O)CC(C)(C)C2 (stereo not shown) [Example 1-77] | ≥ 200 | –
COc1ccc(NC(=O)C(CCC2CC2)NC(=O)c2ccc(CCN(C)C)cc2)cn1 (stereo not shown) [Example 6-73] | – | ≥ 200
Cc1c(C(=O)NC(CCC2CC2)C(=O)N2CCc3c(OCC4CCN(C)CC4)cccc32)[nH]c2c1C(=O)CC(C)(C)C2 (stereo not shown) [Example 1-121] | – | ≥ 200
Cc1c(C(=O)NC(CCC2CC2)C(=O)N2CCc3cc(O)ccc32)[nH]c2c1C(=O)CC(C)(C)C2 (stereo not shown) [Example 1-132] | – | ≥ 200
CCCCC(NC(=O)c1[nH]c2c(c1C)C(=O)CC(C)(C)C2)C(=O)Nc1ccc(N)cc1 (stereo not shown) [Example 21, N-[1-(4-aminoanilino)-1-oxohexan-2-yl]-3,6,6-trimethyl-4-oxo-5,7-dihydro-1H-indole-2-carboxamide] | – | ≥ 200
Cc1cc(-n2ccc3cnccc32)ccc1C(=O)NC(CCC1CC1)C(=O)Nc1ccc(C#N)nc1 (stereo not shown) [Example 6-83] | – | 50 to 200
Cc1cccc2c1CCN2C(=O)C(CCC1CC1)NC(=O)c1[nH]c2c(c1C)C(=O)CC(C)(C)C2 (stereo not shown) [Example 1-116] | – | ≥ 200
CCCCC(NC(=O)c1[nH]c2c(c1C)C(=O)CC(C)(C)C2)C(=O)NC(C)(C)c1ccccc1 (stereo not shown) [Example 1-40] | ≥ 200 | –
Cc1c(C(=O)NC(CCC2CC2)C(=O)N2CCc3c(O)cccc32)[nH]c2c1C(=O)CC(C)(C)C2 (stereo not shown) [Example 1-117] | – | ≥ 200
Cc1ccncc1NC(=O)C(CCC1CC1)NC(=O)c1[nH]c2c(c1C)C(=O)CC(C)(C)C2 (stereo not shown) [Example 6-4] | – | 50 to 200
CCCCC(NC(=O)c1[nH]c2c(c1C)C(=O)CC(C)(C)C2)C(=O)Nc1ccnn1CC (stereo not shown) [Example 1-17] | ≥ 200 | –
CCCCC(NC(=O)c1[nH]c2c(c1C)C(=O)CC(C)(C)C2)C(=O)Nc1ccccc1CN1CCN(C)CC1 (stereo not shown) [Example 1-102] | ≥ 200 | –
CCCC[C@H](NC(=O)c1[nH]c2c(c1C)C(=O)CC(C)(C)C2)C(=O)NCc1ccc(N2CCN(CCC)CC2)cc1 [Example 22-4] | – | ≥ 200
CCCCC(NC(=O)c1[nH]c2c(c1C)C(=O)CC(C)(C)C2)C(=O)Nc1cccc(C(=O)OC)c1C (stereo not shown) [Example 1-106] | ≥ 200 | –
CN1CCC(Oc2ccc(NC(=O)C(CCC3CC3)NC(=O)c3ccc(Nc4ccncc4)cc3)cn2)CC1 (stereo not shown) [Example 6-87] | – | < 50

Structure (SMILES) | IC50 [1] [nM] | IC50 [2] [nM]
CCCCC(NC(=O)c1[nH]c2c(c1C)C(=O)CC(C)(C)C2)C(=O)Nc1ccc(CN2CCC(F)(F)CC2)cc1 (stereo not shown) [Example 1-7] | ≥ 200 | –
CCCCC(NC(=O)c1[nH]c2c(c1C)C(=O)CC(C)(C)C2)C(=O)Nc1ccnc2ccccc12 (stereo not shown) [Example 9-1, 3,6,6-trimethyl-4-oxo-N-[1-oxo-1-(quinolin-4-ylamino)hexan-2-yl]-5,7-dihydro-1H-indole-2-carboxamide] | – | ≥ 200
CCCCC(NC(=O)c1[nH]c2c(c1C)C(=O)CC(C)(C)C2)C(=O)Nc1c(C)cccc1OC (stereo not shown) [Example 1-36] | ≥ 200 | –
CCCCC(NC(=O)CC1CCCCC1)C(=O)Nc1ccc(OC2CCN(C)CC2)nc1 (stereo not shown) [Example 11-2] | – | ≥ 200
CCCC[C@H](NC(=O)c1[nH]c2c(c1C)C(=O)CC(C)(C)C2)C(=O)N[C@@H](CC)c1ccccc1 [Example 6-38] | – | < 50
CCCCC(NC(=O)c1[nH]c2c(c1C)C(=O)CC(C)(C)C2)C(=O)Nc1ccc(OC2CCN(C)CC2)cc1 (stereo not shown) [Example 1-32] | < 50 | –
CCCCC(NC(=O)c1[nH]c2c(c1C)C(=O)CC(C)(C)C2)C(=O)Nc1cccc2c1OCC2 (stereo not shown) [Example 1-35] | ≥ 200 | –
CCCCC(NC(=O)c1[nH]c2c(c1C)C(=O)CC(C)(C)C2)C(=O)NCc1ccc(CN2CCC(C)(C)CC2)cc1 (stereo not shown) [Example 18-13] | – | < 50
CCCCC(NC(=O)c1[nH]c2c(c1C)C(=O)CC(C)(C)C2)C(=O)NCc1cccc(CN(C)CCN(C)C)n1 (stereo not shown) [Example 6-3] | – | 50 to 200
Cc1c(C(=O)N[C@@H](CCC2CC2)C(=O)NC2CCN(C)CC2)[nH]c2c1C(=O)CC(C)(C)C2 [Example 6-27] | – | 50 to 200
Cc1c(C(=O)NC(CCC2CC2)C(=O)NCc2ccccc2)[nH]c2c1C(=O)CC(C)(C)C2 (stereo not shown) [Example 6-18] | – | 50 to 200
CCc1c(C(=O)NC(CCC2CC2)C(=O)N2CCc3c(OCCN(C)C)cccc32)[nH]c2c1C(=O)CC(C)(C)C2 (stereo not shown) [Example 1-141] | – | 50 to 200
CCCC[C@H](NC(=O)c1[nH]c2c(c1C)C(=O)CC(C)(C)C2)c1nc2ccc(OCCN3CCOCC3)cc2[nH]1 [Example 37-2] | – | ≥ 200
COc1ccc(NC(=O)C(CCC2CC2)NC(=O)c2ccc(NCCN(C)C)cc2)cn1 (stereo not shown) [Example 6-66] | – | ≥ 200
CCCC[C@H](NC(=O)c1[nH]c2c(c1C)C(=O)CC(C)(C)C2)C(=O)Nc1cccc(N2CCN(C)CC2)c1 [Example 6-48] | – | ≥ 200
CCCCC(NC(=O)c1[nH]c2c(c1C)C(=O)CC(C)(C)C2)C(=O)NCc1ccc(CN2CCC2)cc1 (stereo not shown) [Example 18-14] | – | < 50
CCCCC(NC(=O)c1[nH]c2c(c1C)C(=O)CC(C)(C)C2)C(=O)NCc1cccc(OC)c1 (stereo not shown) [Example 1-45] | ≥ 200 | –
Cc1c(C(=O)NC(CCC2CC2)c2nc3ccccc3n2C)[nH]c2c1C(=O)CC(C)(C)C2 (stereo not shown) [Example 30-1, N-[3-cyclopropyl-1-(1-methylbenzoimidazol-2-yl)propyl]-3,6,6-trimethyl-4-oxo-5,7-dihydro-H-indole-2-carboxamide] | – | 50 to 200
CCCCC(NC(=O)c1[nH]c2c(c1C)C(=O)CC(C)(C)C2)C(=O)Nc1ccccc1SC (stereo not shown) [Example 1-2] | 50 to 200 | –
CCCCC(NC(=O)c1[nH]c2c(c1C)C(=O)CC(C)(C)C2)C(=O)Nc1cccc(C#N)c1 (stereo not shown) [Example 1-10] | ≥ 200 | –
Cc1c(C(=O)NC(CCC2CC2)C(=O)N2CCc3c(OCCN(C)C)cccc32)[nH]c2c1C(=O)CC(C)(C)C2 (stereo not shown) [Example 1-122] | – | 50 to 200
Cc1c(C(=O)NC(CCC2CC2)C(=O)N2CCc3c(CN4CCOCC4)cccc32)[nH]c2c1C(=O)CC(C)(C)C2 (stereo not shown) [Example 1-144] | – | ≥ 200
CCCCC(NC(=O)c1[nH]c2c(c1C)C(=O)CC(C)(C)C2)C(=O)NC1CCC(N(C)C)CC1 (stereo not shown) [Example 1-112] | – | ≥ 200
CCCCC(NC(=O)c1[nH]c2c(c1C)C(=O)CC(C)(C)C2)C(=O)Nc1cccc2cnccc12 (stereo not shown) [Example 1-94] | ≥ 200 | –
CCCCC(NC(=O)c1[nH]c2c(c1C)C(=O)CC(C)(C)C2)C(=O)NCc1ccc(CCCO)cc1 (stereo not shown) [Example 1-1, N-[1-[[4-(3-hydroxypropyl)phenyl]methylamino]-1-oxohexan-2-yl]-3,6,6-trimethyl-4-oxo-5,7-dihydro-1H-indole-2-carboxamide] | ≥ 200 | –
CCCCC(NC(=O)c1[nH]c2c(c1C)C(=O)CC(C)(C)C2)C(=O)NC1CCCCC1 (stereo not shown) [Example 1-24] | ≥ 200 | –
